This data set can be described thus: Solubility of various Prasugrel acid addition salts, determined according to European Pharmacopoeia 6.0, 5.11 (2008). Type of data set: physicochemical. The text has this:
As bioavailability depends, among others, on solubility, an optimal active substance for oral application should show a high solubility in a broad pH-range. […] Table 2: Solubility of various Prasugrel acid addition salts

Counter-ions that a name gives are not always drawn.

Consider `CC(=O)Oc1cc2c(s1)CCN(C(C(=O)C1CC1)c1ccccc1F)C2` (stereo not drawn) [Prasugrel hydrochloride], for which the Solubility entry by setting is: (Acetate buffer pH 4.5) “insoluble”; (Hydrochloric acid medium pH 1.2) “sparingly soluble”; (water) “insoluble”.

Source of the values: patent publication EP2112155B1, “Hydrogensulfate salt of 2-acetoxy-5-(a-cyclopropylcarbonyl-2-fluorobenzyl)-4,5,6,7-tetrahydrothieno[3,2-c]pyridine and its preparation” (Sandoz AG, priority 2008, dated 2009).
